Measurements: patent US8735414B2 (priority 2009, dated 2014)

Experiments:
[1] = test system: bicistronic HCV replicon (replicon RNA, GenBank Accession No. AJ242654); test: HCV Replicon Assay; type: cell-based; conditions: Hepatitis C virus, 72 h, read-out: Replicon IC50

| Compound | IC50 [1] [µM] | melting point |
| --- | --- | --- |
| C[C@H](NS(=O)(=O)c1ccc(-c2c(C#N)c3cc(F)ccc3n2C2CCCC2)nc1)C1CC1 [compound 143, 6-(3-cyano-1-cyclopentyl-5-fluoro-1H-indol-2-yl)-N-[(1S)-1-cyclopropylethyl]pyridine-3-sulfonamide] | < 0.5 | 159 to 160 °C |
| C[C@H](NS(=O)(=O)c1ccc(-c2c(C#N)c3ccc(F)cc3n2C2CCC2)nc1)C1CC1 [compound 144, 6-(3-cyano-1-cyclobutyl-6-fluoro-1H-indol-2-yl)-N-[(1S)-1-cyclopropylethyl]pyridine-3-sulfonamide] | < 0.5 | 136 to 138 °C |
| Cc1cc2c(cc1F)c(C#N)c(-c1ncc(S(=O)(=O)NC(CF)CF)cn1)n2C1CCC1 [compound 146, 2-(3-cyano-1-cyclobutyl-5-fluoro-6-methyl-1H-indol-2-yl)-N-(1,3-difluoropropan-2-yl)pyrimidine-5-sulfonamide] | < 0.5 | 243 to 249 °C |
| N#Cc1c(-c2ccc(S(=O)(=O)NC(CF)CF)cn2)n(C2CC2)c2cc(C3CC3)ccc12 [compound 147, 6-(3-cyano-1,6-dicyclopropyl-1H-indol-2-yl)-N-(1,3-difluoropropan-2-yl)pyridine-3-sulfonamide] | < 0.5 | 226 to 228 °C |
| N#Cc1c(-c2ncc(S(=O)(=O)NC(CF)CF)cn2)n(C2CCC2)c2cc(Cl)c(F)cc12 [compound 149, 2-(6-chloro-3-cyano-1-cyclobutyl-5-fluoro-1H-indol-2-yl)-N-(1,3-difluoropropan-2-yl)pyrimidine-5-sulfonamide] | < 0.5 | > 245 °C (dec.) |
| COc1cc2c(cc1F)c(C#N)c(-c1ncc(S(=O)(=O)NC(CF)CF)cn1)n2C1CCC1 [compound 150, 2-(3-cyano-1-cyclobutyl-5-fluoro-6-methoxy-1H-indol-2-yl)-N-(1,3-difluoropropan-2-yl)pyrimidine-5-sulfonamide] | < 0.5 | 245 to 247 °C |
| N#Cc1c(-c2ncc(S(=O)(=O)NC(CF)CF)cn2)n(C2CCCC2)c2cc(Cl)ccc12 [compound 157, 2-(6-chloro-3-cyano-1-cyclopentyl-1H-indol-2-yl)-N-(1,3-difluoropropan-2-yl)pyrimidine-5-sulfonamide] | < 0.5 | 233 to 238 °C |
| Cc1ccc2c(c1)c(C#N)c(-c1ccc(S(=O)(=O)NC(CF)CF)cn1)n2C1CCCC1 [compound 158, 6-(3-cyano-1-cyclopentyl-5-methyl-1H-indol-2-yl)-N-(1,3-difluoropropan-2-yl)pyridine-3-sulfonamide] | < 0.5 | 168 to 173 °C |
| Cc1ccc2c(c1)c(C#N)c(-c1ncc(S(=O)(=O)NC(C)C)cn1)n2C1CCCC1 [compound 159, 2-(3-cyano-1-cyclopentyl-5-methyl-1H-indol-2-yl)-N-(propan-2-yl)pyrimidine-5-sulfonamide] | < 0.5 | 193 to 198 °C |
| Cc1ccc2c(c1)c(C#N)c(-c1ncc(S(=O)(=O)NC(CF)CF)cn1)n2C1CCCC1 [compound 160, 2-(3-cyano-1-cyclopentyl-5-methyl-1H-indol-2-yl)-N-(1,3-difluoropropan-2-yl)pyrimidine-5-sulfonamide] | < 0.5 | 202 to 207 °C |
| CSc1ccc2c(C#N)c(-c3ncc(S(=O)(=O)NC(CF)CF)cn3)n(C3CCC3)c2c1 [compound 162, 2-[3-cyano-1-cyclobutyl-6-(methylsulfanyl)-1H-indol-2-yl]-N-(1,3-difluoropropan-2-yl)pyrimidine-5-sulfonamide] | < 0.5 | 199 to 201 °C |
| N#Cc1c(-c2ncc(S(=O)(=O)NC(CF)CF)cn2)n(C2CCC2)c2cc(F)ccc12 [compound 163, 2-(3-cyano-1-cyclobutyl-6-fluoro-1H-indol-2-yl)-N-(1,3-difluoropropan-2-yl)pyrimidine-5-sulfonamide] | 0.5 to 2 | 193 to 195 °C |
| N#Cc1c(-c2ncc(S(=O)(=O)NC(CF)CF)cn2)n(CC2CC2)c2cc(F)ccc12 [compound 164, 2-[3-cyano-1-(cyclopropylmethyl)-6-fluoro-1H-indol-2-yl]-N-(1,3-difluoropropan-2-yl)pyrimidine-5-sulfonamide] | 0.5 to 2 | 176 to 178 °C |
| CC(C)n1c(-c2ncc(S(=O)(=O)NC(CF)CF)cn2)c(C#N)c2ccc(F)cc21 [compound 165, 2-[3-cyano-6-fluoro-1-(propan-2-yl)-1H-indol-2-yl]-N-(1,3-difluoropropan-2-yl)pyrimidine-5-sulfonamide] | 0.5 to 2 | 149 to 150 °C |
| N#Cc1c(-c2ncc(S(=O)(=O)NC(CF)CF)cn2)n(C2CCCC2)c2cc(F)ccc12 [compound 166, 2-(3-cyano-1-cyclopentyl-6-fluoro-1H-indol-2-yl)-N-(1,3-difluoropropan-2-yl)pyrimidine-5-sulfonamide] | < 0.5 | 167 to 169 °C |
| Cc1ccc2c(C#N)c(-c3ncc(S(=O)(=O)NC(C)C)cn3)n(C(C)C)c2c1 [compound 167, 2-[3-cyano-6-methyl-1-(propan-2-yl)-1H-indol-2-yl]-N-(propan-2-yl)pyrimidine-5-sulfonamide] | < 0.5 | 205 to 206 °C |
| Cc1ccc2c(C#N)c(-c3ncc(S(=O)(=O)NC(C)C)cn3)n(CC3CC3)c2c1 [compound 168, 2-[3-cyano-1-(cyclopropylmethyl)-6-methyl-1H-indol-2-yl]-N-(propan-2-yl)pyrimidine-5-sulfonamide] | < 0.5 | 245 to 247 °C |
| Cc1ccc2c(C#N)c(-c3ncc(S(=O)(=O)NC(C)C)cn3)n(C3CCC3)c2c1 [compound 169, 2-(3-cyano-1-cyclobutyl-6-methyl-1H-indol-2-yl)-N-(propan-2-yl)pyrimidine-5-sulfonamide] | < 0.5 | 217 to 219 °C |
| CC(C)NS(=O)(=O)c1cnc(-c2c(C#N)c3ccc(OC(F)F)cc3n2C(C)C)nc1 [compound 171, 2-[3-cyano-6-(difluoromethoxy)-1-(propan-2-yl)-1H-indol-2-yl]-N-(propan-2-yl)pyrimidine-5-sulfonamide] | < 0.5 | 193 to 196 °C |
| COc1ccc2c(C#N)c(-c3ncc(S(=O)(=O)NC(C)C)cn3)n(C3CCC3)c2c1 [compound 172, 2-(3-cyano-1-cyclobutyl-6-methoxy-1H-indol-2-yl)-N-(propan-2-yl)pyrimidine-5-sulfonamide] | < 0.5 | 200 to 202 °C |
| N#Cc1c(-c2ncc(S(=O)(=O)NC(CF)CF)cn2)n(C2CCCC2)c2cc(C3CC3)ccc12 [compound 173, 2-(3-cyano-1-cyclopentyl-6-cyclopropyl-1H-indol-2-yl)-N-(1,3-difluoropropan-2-yl)pyrimidine-5-sulfonamide] | < 0.5 | 215 to 219 °C |
| C[C@H](NS(=O)(=O)c1ccc(-c2c(C#N)c3ccc(OC(F)F)cc3n2C2CCCC2)nc1)C1CC1 [compound 174, 6-[3-cyano-1-cyclopentyl-6-(difluoromethoxy)-1H-indol-2-yl]-N-[(1S)-1-cyclopropylethyl]pyridine-3-sulfonamide] | < 0.5 | 176 to 182 °C |
| N#Cc1c(-c2ncc(S(=O)(=O)NC(CF)CF)cn2)n(C2CCC2)c2ccc(Cl)cc12 [compound 175, 2-(5-chloro-3-cyano-1-cyclobutyl-1H-indol-2-yl)-N-(1,3-difluoropropan-2-yl)pyrimidine-5-sulfonamide] | < 0.5 | 210 to 212 °C |
| N#Cc1c(-c2ncc(S(=O)(=O)NC(CF)CF)cn2)n(C2CCC2)c2cc(Cl)ccc12 [compound 176, 2-(6-chloro-3-cyano-1-cyclobutyl-1H-indol-2-yl)-N-(1,3-difluoropropan-2-yl)pyrimidine-5-sulfonamide] | < 0.5 | 243 to 246 °C |
| N#Cc1c(-c2ncc(S(=O)(=O)NC(CF)CF)cn2)n(C2CCC2)c2cc(OC(F)(F)F)ccc12 [compound 177, 2-[3-cyano-1-cyclobutyl-6-(trifluoromethoxy)-1H-indol-2-yl]-N-(1,3-difluoropropan-2-yl)pyrimidine-5-sulfonamide] | < 0.5 | 202 to 204 °C |
| N#Cc1c(-c2ncc(S(=O)(=O)NC(CF)CF)cn2)n(C2CCCC2)c2cc(OC(F)(F)F)ccc12 [compound 178, 2-[3-cyano-1-cyclopentyl-6-(trifluoromethoxy)-1H-indol-2-yl]-N-(1,3-difluoropropan-2-yl)pyrimidine-5-sulfonamide] | < 0.5 | 181 to 187 °C |
| N#Cc1c(-c2ncc(S(=O)(=O)NC(CF)CF)cn2)n(C2CCCCC2)c2cc(OC(F)F)ccc12 [compound 179, 2-[3-cyano-1-cyclohexyl-6-(difluoromethoxy)-1H-indol-2-yl]-N-(1,3-difluoropropan-2-yl)pyrimidine-5-sulfonamide] | < 0.5 | 174 to 176 °C |
| C[C@@H](NS(=O)(=O)c1cnc(-c2c(C#N)c3ccc(C4CC4)cc3n2C2CCC2)nc1)C(F)(F)F [compound 180, 2-(3-cyano-1-cyclobutyl-6-cyclopropyl-1H-indol-2-yl)-N-[(2R)-1,1,1-trifluoropropan-2-yl]pyrimidine-5-sulfonamide] | 0.5 to 2 | 211 to 212 °C |
| Cc1ccc2c(C#N)c(-c3ncc(S(=O)(=O)N[C@H](C)C(F)(F)F)cn3)n(C3CCC3)c2c1 [compound 181, 2-(3-cyano-1-cyclobutyl-6-methyl-1H-indol-2-yl)-N-[(2R)-1,1,1-trifluoropropan-2-yl]pyrimidine-5-sulfonamide] | < 0.5 | 143 to 145 °C |
| Cc1ccc2c(C#N)c(-c3ncc(S(=O)(=O)N[C@H](C)C(F)(F)F)cn3)n(C3CCCC3)c2c1 [compound 182, 2-(3-cyano-1-cyclopentyl-6-methyl-1H-indol-2-yl)-N-[(2R)-1,1,1-trifluoropropan-2-yl]pyrimidine-5-sulfonamide] | < 0.5 | 116 to 118 °C |
